{
  "source": "ChEMBL document CHEMBL1201862",
  "about": "“PubChem BioAssay data set” (2004)",
  "key": {"Cytochrome P450 2D6": {"target": "Cytochrome P450 2D6 (Homo sapiens, UniProt P10635)", "assay": "qHTS Assay for Inhibitors and Substrates of Cytochrome P450 2D6. [Related pubchem assays: 410 ]", "format": "ADME", "conditions": "read-out: Potency"}, "[1]": {"target": "Heat shock protein HSP 90-alpha (Homo sapiens, UniProt P07900)", "format": "functional, organism-based"}, "[2]": {"assay": "A Cell Based Secondary Assay To Explore Cytotoxicity of Compounds that Sensitize Mycobacterium Tuberculosis to Beta-Lactam Antibiotics.", "format": "functional"}, "[3]": {"assay": "Luminescent dose response cell-based high throughput screening assay for inhibitors of the Janus kinase 2 mutant JAK2V617F. [Related pubchem assays: 1446 (Primary screen.), 1521 (Confirmation assay.), 1486 (Counter screen.)]", "format": "functional"}, "[4]": {"assay": "fluconazole-exposed Candida albicans growth modulators – fluorescence, retest, confirmation (AID 2467)", "format": "functional, cell-based"}, "Vero": {"system": "Vero", "assay": "cells", "format": "functional", "conditions": "Chlorocebus sabaeus"}, "[5]": {"assay": "NIH-3T3 fibroblast cytotoxicity, dose response, cytotoxicity control, cell-based, fluorescence, Alamar Blue, secondary assay (AID 2327);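 further: NIH-3T3 mouse fibroblasts cultured with fluconazole at 8 µg/mL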", "format": "functional"}, "[6]": {"assay": "NIH3T3 cell viability loss – ATP luminescence, mouse fibroblasts, counter-screen, dose response (AID 2010);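 further: cells exposed to compound for about 90 hours before reading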", "format": "functional, cell-based"}, "INS1": {"system": "INS1", "assay": "INS-1E survival protection against cytokine death – cell-based, luminescence, retest, dose response (AID 449756);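 further: cell death triggered by IL-1 beta plus TNF-alpha plus IFN-gamma mixture; protective hits raise ATP signal compared with cytokine alone wells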", "format": "functional", "conditions": "Rattus norvegicus"}, "[7]": {"assay": "Luminescence Cell-Based Dose Response HTS to Identify Inhibitors of 5'UTR Stem-Loop Driven Prion Protein mRNA Translation in H4 Neuroglioblastoma Cells. [Related pubchem assays: 1827 (Project Summary), 1813 (Primary HTS)]", "format": "functional"}, "[8]": {"assay": "luciferase reporter signal suppression in cells – H4 neuroglioma cells, luminescence, dose response (AID 1990)", "format": "functional, cell-based"}, "[9]": {"assay": "microbe, parasite or virus in culture", "format": "functional", "conditions": "Mycobacterium tuberculosis"}, "[10]": {"assay": "Trypanosoma cruzi growth suppression in host cells – NIH3T3 host cells, beta-gal luminescence, confirmation (AID 2044);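 further: luminescent beta-galactosidase reporter signal from transgenic T. cruzi replicating inside host cells; inhibitors lower the luminescence signal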", "format": "functional, cell-based"}, "[11]": {"assay": "alpha-synuclein stem-loop luciferase translation blockers – H4 neuroglioma cells, luminescence, confirmation (AID 1988)", "format": "functional, cell-based"}, "cells [12]": {"assay": "cells"}, "[13]": {"target": "Lysosomal acid glucosylceramidase (Homo sapiens, UniProt P04062)", "assay": "Dose response cell-based high throughput screening assay to identify enhancers of beta-glucosidase activity. [Related pubchem assays: 784 ]", "format": "functional"}, "cells [14]": {"assay": "cells", "remark": "listed apart in the source"}, "Major prion protein": {"target": "Major prion protein (Homo sapiens, UniProt P04156)", "format": "functional, cell-based"}, "[15]": {"target": "Protein-tyrosine kinase 2-beta (Homo sapiens, UniProt Q14289)"}},
  "note": "Active and inactive are the calls of the source.",
  "data": [
    {"smiles": "CC(C)[C@@]1(NC(=O)[C@H]2C[C@H]3c4cccc5[nH]cc(c45)C[C@@H]3N(C)C2)O[C@]2(O)[C@H]3CCCN3C(=O)[C@H](Cc3ccccc3)N2C1=O", "values": [
      {"measurement": "AC50", "setting": "Cytochrome P450 2D6", "value": "31.6 µM (inconclusive)"}
    ]},
    {"smiles": "OCCOCCn1c(C2CCCN2c2nc(-c3ccc(F)cc3)cs2)nc2cc(Cl)c(Cl)cc21", "note": "(configuration not stated)", "values": [
      {"measurement": "AC50", "setting": "[1]", "value": "6.11 µM (active)"},
      {"measurement": "CC50", "setting": "[2]", "value": "37.6 µM (active)"}
    ]},
    {"smiles": "Cc1cccc(NC(=O)c2ccc([N+](=O)[O-])o2)c1", "values": [
      {"measurement": "IC50", "setting": "[3]", "value": "1.18 µM (active)"},
      {"measurement": "EC50", "setting": "[4]", "value": "1.42 µM (active)"},
      {"measurement": "CC50", "setting": "Vero", "value": "10 µM (active)"},
      {"measurement": "EC50", "setting": "[5]", "value": "18 µM (active)"}
    ]},
    {"smiles": "Fc1ccc(C[n+]2c(-c3ccccc3)cc(-c3ccccc3)cc2-c2ccccc2)cc1.[O-][Cl+3]([O-])([O-])[O-]", "values": [
      {"measurement": "EC50", "setting": "[6]", "value": "> 60 µM (not active)"},
      {"measurement": "AC50", "setting": "INS1", "value": "2.98 µM (active)"},
      {"measurement": "EC50", "setting": "[7]", "value": "35.3 µM (active)"},
      {"measurement": "EC50", "setting": "[8]", "value": "11.2 µM (active)"},
      {"measurement": "CC50", "setting": "[9]", "value": "> 40 µM (active)"},
      {"measurement": "EC50", "setting": "[10]", "value": "< 0.1 µM (active)"},
      {"measurement": "EC50", "setting": "[11]", "value": "> 120 µM (not active)"},
      {"measurement": "EC50", "setting": "cells [12]", "value": "0.053 µM (active)"}
    ]},
    {"smiles": "c1ccc(Cn2c(SCc3nc4ccccc4s3)nnc2-c2ccco2)cc1", "values": [
      {"measurement": "EC50", "setting": "[13]", "value": "> 50 µM (not active)"}
    ]},
    {"smiles": "Cc1cc(NC(=O)CSc2nc(C(C)C)nc3ccccc23)no1", "values": [
      {"measurement": "IC50", "setting": "cells [14]", "value": "> 138 µM (inactive)"},
      {"measurement": "IC50", "setting": "Major prion protein", "value": "0.936 µM (active)"},
      {"measurement": "IC50", "setting": "[15]", "value": "> 69.5 µM (not active)"}
    ]},
    {"smiles": "Cc1cc(O)nc(N/N=C/c2c(F)c(F)c(F)c(F)c2F)n1", "values": [
      {"measurement": "CC50", "setting": "[2]", "value": "> 40 µM (active)"}
    ]},
    {"smiles": "COc1ccc(OCC2CC3C(CCC(C)C3c3ccc(Br)cc3)C(=O)O2)cc1", "note": "(configuration not stated)", "values": [
      {"measurement": "AC50", "setting": "Cytochrome P450 2D6", "value": "7.94 µM (inconclusive)"}
    ]},
    {"smiles": "Cc1ccc(N2C(=O)Nc3ccc(Br)cc3C2(O)C(=O)NCCCN(C)C)cc1C", "note": "(configuration not stated)", "values": [
      {"measurement": "EC50", "setting": "[13]", "value": "> 50 µM (not active)"}
    ]}
  ]
}
